Laboratory results from paper PMC10380726, “Cyanocobalamin-Modified Colistin–Hyaluronan Conjugates: Synthesis and Bioactivity” (International Journal of Molecular Sciences, 2023).

How the values were obtained:
P. aeruginosa ATCC 27853 = assay: Antimicrobial activity, microtiter broth dilution method; format: cell-based, Pseudomonas aeruginosa; conditions: 1 × 10^7 CFU/mL, Mueller–Hinton broth, 24 h at 37 °C, OD 630 nm, concentration equivalent to CT
Method: The antimicrobial activity of HA–CT–B12 was tested using the microtiter broth dilution method, as previously reported. P. aeruginosa ATCC 27853 (Museum of Microbiological Cultures, State Research Institute of Highly Pure Biopreparations, St. Petersburg, Russia) was used as the experimental microorganism. Briefly, HA–CT–B12 conjugate stock solutions were prepared by diluting samples in Mueller–Hinton broth to a maximum 2-fold concentration equivalent to CT. Serial dilutions of CT (64 to 0.25 μg/mL) were then plated on Luria-Bertani agar culture plates. The antimicrobial efficacy of the HA–CT–B12 conjugates was confirmed by the absence of P. aeruginosa growth. P. aeruginosa suspension was serially diluted 1:100 in Müller–Hinton broth to obtain a concentration of approximately 1 × 10^7 CFU/mL. Then, 125 µL of the inoculum was added to the wells of the culture plate containing HA–CT–B12 solutions in Müller–Hinton broth. […] The plate was incubated for 24 h at 37 °C and the optical density (OD) was measured at 630 nm using an ELx808™ Absorbance Microplate Reader (BioTek Instruments, Winooski, VT, USA). Relative bacterial growth (%) was calculated as the ratio of OD630 at each concentration of the test samples to OD630 in the control (0 μg/mL). […]

Caco-2 cell monolayer = assay: Caco-2 cell permeability assay; format: in vitro ADME, human
Method: The human colon adenocarcinoma cell line Caco-2 was obtained from the Russian Cell Culture Collection (Institute of Cytology, Russian Academy of Sciences, St. Petersburg, Russia). Caco-2 cells were cultured in DMEM medium supplemented with 10% FBS, L-glutamine, and penicillin/streptomycin in 75 cm^2 cell culture flasks (Jet Biofil, Guangzhou, China) at 37 °C in a humidified atmosphere containing 5% CO2 in a CO2 incubator. When the cells reached 60-70% confluence, the cells were sub-cultured into new flasks (1:6 ratio). […] Samples were collected from the bottom chamber and fluorescence intensity was measured using a fluorescence plate reader (excitation 492 nm; emission 520 nm). […] The content of vitamin B12 and the content of the HA-CT-B12 conjugate equivalent to vitamin B12 were determined spectrophotometrically at 360 nm using a calibration curve. […] The Papp was calculated using the following equation [33]:(1) […]0 where Papp is the apparent permeability coefficient (cm/s); dQ/dt -is the permeation rate (μg/s); A is the monolayer area (0.3 sm^2); and C0 is the concentration in the apical chamber at the initial moment of time (μg/mL).

Row | Substance | Minimum inhibitory concentration (MIC) (P. aeruginosa ATCC 27853) | Apparent permeability coefficient (Papp) (Caco-2 cell monolayer; Caco-2) | Apparent permeability coefficient (Papp) (Caco-2 cell monolayer; Caco-2 monolayer, day 21, apical to basolateral, PBS, 2 h with sampling every 30 min, 1 mg CT, 28.5 mg vitamin B12 or 300 mg conjugate in 5 mL PBS, 0.5 mL applied, B12 and conjugate read at 360 nm, mean of n = 3)
1 | colistin [CT] | 2 µg/mL | 0.04 ×10⁻⁶ cm/s | 
2 | cyanocobalamin [vitamin B12] |  |  | 5.4 ×10⁻⁶ cm/s
